For orientation: IC50 means the concentration at which inhibition is half-maximal.

Results on 35 compounds are retold here after PubChem BioAssay AID789 (SRMLSC, 2007).

Calls of active or inactive are those of the source. The rule behind the calls is not given here. Where only a bound is given, the exact number is not on record here.

For experiment [1], the system named is S. cerevisiae apl2Δ mutant growth inhibition. Kind of experiment: growth inhibition of apl2Δ yeast, dose response, selectivity assay for post-Golgi transport modulator project, S. cerevisiae, secondary screen, background strain comparison (AID 789).
Assay in experiment [2]: as above
The following applies: S. cerevisiae background (wild-type parent) strain growth inhibition.

On to `Cc1cc2ncn(CC(O)COc3cccc(C(=O)O)c3)c2cc1C` (stereo not given), for which the figures for the IC50 in experiment [1] and in experiment [2] were > 10 µM (inactive) and more than 10 µM, respectively.

`C=C(C)C1CC=C(CN2CC(C)OC(C)C2)CC1` (stereo not given): the IC50 was > 10 µM (inactive) in experiment [1] and more than 10 µM in experiment [2].

With `CC1CC(C)CN(CC(C)(C)NS(=O)(=O)c2ccc(Cl)cc2)C1` (stereo not given), the figures for the IC50 in experiment [1] and in experiment [2] were > 10 µM (inactive) and more than 10 µM, respectively.

In the case of `Cc1c(Cc2ccccc2)c(=O)oc2c(C)c(OCc3nn[nH]n3)ccc12`, the values for the IC50 in experiment [1] and in experiment [2] were > 10 µM (inactive) and more than 10 µM, respectively.

`CC(C)(C)n1nnnc1CN(Cc1cccnc1)Cc1ccccc1Cl`: the IC50 in experiment [1] was > 10 µM (inactive); in experiment [2] it was more than 10 µM.

In the case of `CCOC(=O)c1cc2c(ccn2C)n1CC(=O)N1CCN(c2ccccc2OC)CC1`, the IC50 in experiment [1] was > 10 µM (inactive); in experiment [2], more than 10 µM.

Consider `COc1cccc(NC(=O)C2CCCN2C(=O)OCc2ccccc2)c1` (stereo not given), for which the IC50 in experiment [1] is > 10 µM (inactive); in experiment [2] it was more than 10 µM.

Regarding `COc1ccc(NC(=O)N(C2CCCCC2)C(C)c2cccnc2)c(OC)c1` (stereo not given), the IC50 in experiment [1] was 12.6 µM; in experiment [2], 16.7 µM.

Turning to `Cc1cc(Cl)cc(C)c1OCCCCN1CCOCC1`, the IC50 was > 10 µM (inactive) in experiment [1] and more than 10 µM in experiment [2].

For `O=C(Nc1nc(-c2ccccn2)cs1)c1ncc(Cl)c(Cl)c1Cl`, the IC50 in experiment [1] is 19.3 µM (inactive); in experiment [2] it was 13.3 µM.

Take `COc1ccc(-c2cc(N)n(S(=O)(=O)c3c(F)c(F)c(F)c(F)c3F)n2)cc1OC`: the IC50 was 9.68 µM (inactive) in experiment [1] and 1.08 µM in experiment [2].

`CCN(CC)c1nc2cc(OC)ccc2cc1C#N`: the figures for the IC50 in experiment [1] and in experiment [2] were > 10 µM (inactive) and more than 10 µM, respectively.

`CCC(C)c1ccc(OCCCCN2CCOCC2)cc1` (stereo not given): the values for the IC50 in experiment [1] and in experiment [2] were 24 µM and more than 10 µM, respectively.

As for `c1coc(CNc2nc(N3CCCCC3)nc3ccccc23)c1`, the IC50 in experiment [1] is > 10 µM (inactive); in experiment [2], more than 10 µM.

Consider `O=C(OCn1nnc2ccccc2c1=O)c1cn(-c2ccccc2)nc1-c1cccnc1`, for which the results for the IC50 in experiment [1] and in experiment [2] were > 10 µM (inactive) and more than 10 µM, respectively.

Regarding `c1ccc(Nc2cc(-c3ccccc3)nc3ncnn23)cc1`, the results for the IC50 in experiment [1] and in experiment [2] were > 10 µM (inactive) and more than 10 µM, respectively.

`Cc1ccc(C)c(C(=O)NCc2ccncc2)c1`: the IC50 was > 10 µM (inactive) in experiment [1] and more than 10 µM in experiment [2].

On to `Cc1sc(NC(=O)c2ccco2)c(C(c2cccnc2)N2CCC(C)CC2)c1C` (stereo not given), for which the figures for the IC50 in experiment [1] and in experiment [2] were 13.9 µM (inactive) and 5.77 µM, respectively.

As to `N#CC1=C2SCC(O)(c3ccccc3)N2C(=O)CC1c1ccccc1` (stereo not given), the IC50 in experiment [1] is > 10 µM (inactive); in experiment [2], more than 10 µM.

For the compound `CCOc1ccc(NC(=O)C/C(N)=N/O)cc1`, the IC50 in experiment [1] is > 10 µM (inactive); in experiment [2], more than 10 µM.

Turning to `CCC(=O)N(CCO)Cc1cc2ccc(C)c(C)c2[nH]c1=O`, the figures for the IC50 in experiment [1] and in experiment [2] were > 10 µM (inactive) and more than 10 µM, respectively.

In the case of `CC(=O)NC1C(c2nc3ccccc3s2)=C(c2ccccc2)C(=O)N1c1ccc(C)cc1` (stereo not given), the IC50 was 2.89 µM (inactive) in experiment [1] and 1.92 µM in experiment [2].

On to `CCC(C)(C)NC(=O)CN(C(=O)CCC(=O)Nc1ccccn1)c1ccc(F)c(Cl)c1`, for which the IC50 is > 10 µM (inactive) in experiment [1] and more than 10 µM in experiment [2].

For the compound `C=C(C)COc1ccc(-c2ncncc2Oc2ccc(OC)cc2)c(O)c1`, the IC50 is > 10 µM (inactive) in experiment [1] and more than 10 µM in experiment [2].

Regarding `Cc1cccnc1Nc1nc(-c2ccccn2)cs1`, the IC50 in experiment [1] was > 10 µM (inactive); in experiment [2], more than 10 µM.

Consider `COc1ccc(N2CCN(c3oc(-c4ccco4)nc3C#N)CC2)cc1`, for which the values for the IC50 in experiment [1] and in experiment [2] were > 10 µM (inactive) and more than 10 µM, respectively.

As for `O=C(O)Cn1c(SCCOc2ccccc2F)nc2ccccc21`, the IC50 in experiment [1] is > 10 µM (inactive); in experiment [2], more than 10 µM.

On to `CCN(CC)c1ccc(CN2CC=C(c3ccc(F)cc3)CC2)cc1`, for which the figures for the IC50 in experiment [1] and in experiment [2] were 17.3 µM and 25.8 µM, respectively.

As for `CCn1c(SCC(=O)N2CCCc3ccccc32)nnc1-c1ccco1`, the IC50 in experiment [1] was > 10 µM (inactive); in experiment [2] it was more than 10 µM.

On to `OC(COCc1ccc(Cl)cc1)CN1CC=C(c2ccccc2)CC1` (stereo not given), for which the values for the IC50 in experiment [1] and in experiment [2] were 8.58 µM and 20.8 µM, respectively.

Consider `CCOC(=O)c1cccnc1SCc1cc(=O)n2ccccc2n1`, for which the IC50 in experiment [1] was > 10 µM (inactive); in experiment [2], more than 10 µM.

With `O=C(NCC(c1cccnc1)N1CCN(c2ccccc2)CC1)c1ccc2c(c1)OCO2` (stereo not given), the results for the IC50 in experiment [1] and in experiment [2] were > 10 µM (inactive) and more than 10 µM, respectively.

On to `CCOc1ccc(-c2[nH]ncc2Oc2ccccc2OCC)c(O)c1`, for which the IC50 in experiment [1] was 13.4 µM; in experiment [2], 16 µM.

On to `O=C(NCc1ccco1)C(c1cccs1)N(C(=O)Cc1cccs1)c1ccccc1` (stereo not given), for which the IC50 in experiment [1] was > 10 µM (inactive); in experiment [2], more than 10 µM.

In the case of `Clc1ccc(-c2cnc(Oc3ccccc3)nc2)cc1`, the IC50 in experiment [1] is > 10 µM (inactive); in experiment [2], more than 10 µM.
